# Results as given in patent EP1166782A2, “Anti-retroviral pharmaceutical compositions” (Yang, Chi-Chiang, priority 2000, dated 2002).
# Where two headings read alike, the source gives them in different places.
# Key:
# [1] = test system: various HIV isolates (NL-43, JRCSF or 89.6); experiment: P24 quantification, summary statements over all isolates; type: cell-based, HIV-1
# Description: (§1) PBMCs were treated with various concentrations of CAPE, MC and PEDMC provided in Example 2 and simultaneously infected with […] and macrophage and T cells dual tropic (89.6) HIV-1 isolates. The next day, the added compounds were removed by washing methods or maintained at the same concentration. Samples were divided into two groups and the upernatants of the culture medium were collected at the 3 and 7 days after infection, respectively. The use of P24 EIA Reagent Kit of Abbott Laboratory compares the concentrations of viral P24 antigen with or without the compounds tested.
# [2] = test system: macrophage-tropic (NL-43); experiment: P24 quantification (P24 EIA) in infected PBMCs, NL-43; type: cell-based, HIV-1; conditions: PBMC; for concentrations of the viral P24 antigen, NL43(+): (+) original concentration of compound maintained after washing; for concentrations of the viral P24 antigen, NL43(-): (-) compound removed after washing
# Description: as §1
# [3] = test system: T cells-tropic (JRCSF); experiment: P24 quantification (P24 EIA) in infected PBMCs, JRCSF; type: cell-based, HIV-1; conditions: PBMC; for concentrations of the viral P24 antigen, JRCSF(+): (+) original concentration of compound maintained after washing; for concentrations of the viral P24 antigen, JRCSF(-): (-) compound removed after washing
# Description: as §1
# [4] = test system: macrophage and T cells dual tropic (89.6); experiment: P24 quantification (P24 EIA) in infected PBMCs, 89.6; type: cell-based, HIV-1; conditions: PBMC; for concentrations of the viral P24 antigen, 89.6(+): (+) original concentration of compound maintained after washing; for concentrations of the viral P24 antigen, 89.6(-): (-) compound removed after washing
# Description: as §1
# [5] = test system: Peripheral Blood Mononuclear Cells (PBMC); conditions: for The numbers of dead cells in 400 cells' count / % viability: 48 hours; for The numbers of dead cells in 400 cells' count: control 9 dead cells; for % viability: viable cells versus control (391);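 as to all read-outs here: trypan blue dye exclusion, cells stained and counted from quadruplicate dishes, DMSO vehicle kept under 0.5%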
# Description: Viability of the cells was assayed by the trypan blue dye exclusion method. […] The concentration of DMSO was adjusted to be less than 0.5%. Cells from quadruplicated dishes were washed once with Hank's Balanced Salt Solution (HBSS). According to the process, the floating dead cells will be separated from the live monolayer cells. Then the cells were stained with trypan blue and counted. The total number of viable cells in the control group was considered as 100% viability and the agent-treated cells were compared with the control group for the determination of % viability. The % viability of agent-treated cells was calculated from the total number of viable cells in the control group and in the agent-treated group.
structure (smiles),measurement,setting,value
"COC(=O)/C=C/c1ccc(O)c(O)c1 [MC, methyl caffeate]",viral replications (result in words),"[1]; Figures 3-5, PBMC infected with NL-43, JRCSF or 89.6",significantly inhibited viral replications
same,inhibit viral replication,"[1]; at the concentration of 100 µM or less, various HIV isolates",100%
same,"concentrations of the viral P24 antigen, NL43(+)",[2]; 0.1 µM,1000 unit
same,"concentrations of the viral P24 antigen, NL43(-)",[2]; 0.1 µM,1000 unit
same,"concentrations of the viral P24 antigen, NL43(+)",[2]; 0.5 µM,1000 unit
same,"concentrations of the viral P24 antigen, NL43(-)",[2]; 0.5 µM,1000 unit
same,"concentrations of the viral P24 antigen, NL43(+)",[2]; 1 µM,1000 unit
same,"concentrations of the viral P24 antigen, NL43(-)",[2]; 1 µM,1000 unit
same,"concentrations of the viral P24 antigen, NL43(+)",[2]; 5 µM,1000 unit
same,"concentrations of the viral P24 antigen, NL43(-)",[2]; 5 µM,1000 unit
same,"concentrations of the viral P24 antigen, NL43(+)",[2]; 10 µM,1000 unit
same,"concentrations of the viral P24 antigen, NL43(-)",[2]; 10 µM,1000 unit
same,"concentrations of the viral P24 antigen, NL43(+)",[2]; 25 µM,220.63 unit
same,"concentrations of the viral P24 antigen, NL43(-)",[2]; 25 µM,1000 unit
same,"concentrations of the viral P24 antigen, NL43(+)",[2]; 50 µM,273.07 unit
same,"concentrations of the viral P24 antigen, NL43(-)",[2]; 50 µM,922.63 unit
same,"concentrations of the viral P24 antigen, NL43(+)",[2]; 100 µM,0 unit
same,"concentrations of the viral P24 antigen, NL43(-)",[2]; 100 µM,687.24 unit
same,"concentrations of the viral P24 antigen, NL43(+)",[2]; 200 µM,0 unit
same,"concentrations of the viral P24 antigen, NL43(-)",[2]; 200 µM,518.45 unit
same,"concentrations of the viral P24 antigen, NL43(+)",[2]; 400 µM,0 unit
same,"concentrations of the viral P24 antigen, NL43(-)",[2]; 400 µM,2.53 unit
same,"concentrations of the viral P24 antigen, JRCSF(+)",[3]; 0.1 µM,1000 unit
same,"concentrations of the viral P24 antigen, JRCSF(-)",[3]; 0.1 µM,1000 unit
same,"concentrations of the viral P24 antigen, JRCSF(+)",[3]; 0.5 µM,1000 unit
same,"concentrations of the viral P24 antigen, JRCSF(-)",[3]; 0.5 µM,1000 unit
same,"concentrations of the viral P24 antigen, JRCSF(+)",[3]; 1 µM,1000 unit
same,"concentrations of the viral P24 antigen, JRCSF(-)",[3]; 1 µM,1000 unit
same,"concentrations of the viral P24 antigen, JRCSF(+)",[3]; 5 µM,58.13 unit
same,"concentrations of the viral P24 antigen, JRCSF(-)",[3]; 5 µM,1000 unit
same,"concentrations of the viral P24 antigen, JRCSF(+)",[3]; 10 µM,2.53 unit
same,"concentrations of the viral P24 antigen, JRCSF(-)",[3]; 10 µM,828.46 unit
same,"concentrations of the viral P24 antigen, JRCSF(+)",[3]; 25 µM,2.33 unit
same,"concentrations of the viral P24 antigen, JRCSF(-)",[3]; 25 µM,786.67 unit
same,"concentrations of the viral P24 antigen, JRCSF(+)",[3]; 50 µM,0 unit
same,"concentrations of the viral P24 antigen, JRCSF(-)",[3]; 50 µM,42.64 unit
same,"concentrations of the viral P24 antigen, JRCSF(+)",[3]; 100 µM,0 unit
same,"concentrations of the viral P24 antigen, JRCSF(-)",[3]; 100 µM,0 unit
same,"concentrations of the viral P24 antigen, JRCSF(+)",[3]; 200 µM,0 unit
same,"concentrations of the viral P24 antigen, JRCSF(-)",[3]; 200 µM,0 unit
same,"concentrations of the viral P24 antigen, JRCSF(+)",[3]; 400 µM,0 unit
same,"concentrations of the viral P24 antigen, JRCSF(-)",[3]; 400 µM,0 unit
same,"concentrations of the viral P24 antigen, 89.6(+)",[4]; 0.1 µM,1000 unit
same,"concentrations of the viral P24 antigen, 89.6(-)",[4]; 0.1 µM,1000 unit
same,"concentrations of the viral P24 antigen, 89.6(+)",[4]; 0.5 µM,954.88 unit
same,"concentrations of the viral P24 antigen, 89.6(-)",[4]; 0.5 µM,1000 unit
same,"concentrations of the viral P24 antigen, 89.6(+)",[4]; 1 µM,149.67 unit
same,"concentrations of the viral P24 antigen, 89.6(-)",[4]; 1 µM,966.67 unit
same,"concentrations of the viral P24 antigen, 89.6(+)",[4]; 5 µM,66.78 unit
same,"concentrations of the viral P24 antigen, 89.6(-)",[4]; 5 µM,1000 unit
same,"concentrations of the viral P24 antigen, 89.6(+)",[4]; 10 µM,14.36 unit
same,"concentrations of the viral P24 antigen, 89.6(-)",[4]; 10 µM,624.39 unit
same,"concentrations of the viral P24 antigen, 89.6(+)",[4]; 25 µM,5.2 unit
same,"concentrations of the viral P24 antigen, 89.6(-)",[4]; 25 µM,504.42 unit
same,"concentrations of the viral P24 antigen, 89.6(+)",[4]; 50 µM,18.4 unit
same,"concentrations of the viral P24 antigen, 89.6(-)",[4]; 50 µM,286.46 unit
same,"concentrations of the viral P24 antigen, 89.6(+)",[4]; 100 µM,8.91 unit
same,"concentrations of the viral P24 antigen, 89.6(-)",[4]; 100 µM,278.43 unit
same,"concentrations of the viral P24 antigen, 89.6(+)",[4]; 200 µM,0 unit
same,"concentrations of the viral P24 antigen, 89.6(-)",[4]; 200 µM,124.97 unit
same,"concentrations of the viral P24 antigen, 89.6(+)",[4]; 400 µM,0 unit
same,"concentrations of the viral P24 antigen, 89.6(-)",[4]; 400 µM,0 unit
same,The numbers of dead cells in 400 cells' count,[5]; 0.1 µM,9
same,% viability,[5]; 0.1 µM,391/391 (100%)
same,The numbers of dead cells in 400 cells' count,[5]; 0.5 µM,7
same,% viability,[5]; 0.5 µM,393/391 (100.5%)
same,The numbers of dead cells in 400 cells' count,[5]; 1 µM,12
same,% viability,[5]; 1 µM,388/391 (99.2%)
same,The numbers of dead cells in 400 cells' count,[5]; 5 µM,9
same,% viability,[5]; 5 µM,391/391 (100%)
same,The numbers of dead cells in 400 cells' count,[5]; 10 µM,7
same,% viability,[5]; 10 µM,393/391 (100.5%)
same,The numbers of dead cells in 400 cells' count,[5]; 25 µM,11
same,% viability,[5]; 25 µM,389/391 (99.5%)
same,The numbers of dead cells in 400 cells' count,[5]; 50 µM,11
same,% viability,[5]; 50 µM,389/391 (99.5%)
same,The numbers of dead cells in 400 cells' count,[5]; 100 µM,7
same,% viability,[5]; 100 µM,393/391 (100.5%)
same,The numbers of dead cells in 400 cells' count,[5]; 200 µM,8
same,% viability,[5]; 200 µM,392/391 (100.3%)
same,The numbers of dead cells in 400 cells' count,[5]; 400 µM,7
same,% viability,[5]; 400 µM,393/391 (100.5%)
same,viabilities of PBMC under high-dose versus low-dose treatments (result in words),[5]; high dose up to 400 µM compared with 0.1-10 µM,no substantial differences
